This experiment concerns the target T1, ΔF508-CFTR (Homo sapiens, UniProt P13569, DEL508-508).
T1 construct: expressed in transfected cells
Kind of experiment: Membrane potential optical assay (FRET/VIPR), identification of correction compounds. Format: cell-based. The following applies: for Emax: relative efficacy. In outline:
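NIH3T3 cells stably expressing ΔF508-CFTR incubated 16 hrs at 37° C in serum-free medium with test compound; 27° C incubation as positive control. CFTR then activated with 10 μM forskolin plus 20 μM genistein in Cl^−-free medium; depolarization read by DiSBAC2(3)/CC2-DMPE FRET on VIPR.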

T1 sequence (P13569 with tags, fused parts or gaps DEL508-508): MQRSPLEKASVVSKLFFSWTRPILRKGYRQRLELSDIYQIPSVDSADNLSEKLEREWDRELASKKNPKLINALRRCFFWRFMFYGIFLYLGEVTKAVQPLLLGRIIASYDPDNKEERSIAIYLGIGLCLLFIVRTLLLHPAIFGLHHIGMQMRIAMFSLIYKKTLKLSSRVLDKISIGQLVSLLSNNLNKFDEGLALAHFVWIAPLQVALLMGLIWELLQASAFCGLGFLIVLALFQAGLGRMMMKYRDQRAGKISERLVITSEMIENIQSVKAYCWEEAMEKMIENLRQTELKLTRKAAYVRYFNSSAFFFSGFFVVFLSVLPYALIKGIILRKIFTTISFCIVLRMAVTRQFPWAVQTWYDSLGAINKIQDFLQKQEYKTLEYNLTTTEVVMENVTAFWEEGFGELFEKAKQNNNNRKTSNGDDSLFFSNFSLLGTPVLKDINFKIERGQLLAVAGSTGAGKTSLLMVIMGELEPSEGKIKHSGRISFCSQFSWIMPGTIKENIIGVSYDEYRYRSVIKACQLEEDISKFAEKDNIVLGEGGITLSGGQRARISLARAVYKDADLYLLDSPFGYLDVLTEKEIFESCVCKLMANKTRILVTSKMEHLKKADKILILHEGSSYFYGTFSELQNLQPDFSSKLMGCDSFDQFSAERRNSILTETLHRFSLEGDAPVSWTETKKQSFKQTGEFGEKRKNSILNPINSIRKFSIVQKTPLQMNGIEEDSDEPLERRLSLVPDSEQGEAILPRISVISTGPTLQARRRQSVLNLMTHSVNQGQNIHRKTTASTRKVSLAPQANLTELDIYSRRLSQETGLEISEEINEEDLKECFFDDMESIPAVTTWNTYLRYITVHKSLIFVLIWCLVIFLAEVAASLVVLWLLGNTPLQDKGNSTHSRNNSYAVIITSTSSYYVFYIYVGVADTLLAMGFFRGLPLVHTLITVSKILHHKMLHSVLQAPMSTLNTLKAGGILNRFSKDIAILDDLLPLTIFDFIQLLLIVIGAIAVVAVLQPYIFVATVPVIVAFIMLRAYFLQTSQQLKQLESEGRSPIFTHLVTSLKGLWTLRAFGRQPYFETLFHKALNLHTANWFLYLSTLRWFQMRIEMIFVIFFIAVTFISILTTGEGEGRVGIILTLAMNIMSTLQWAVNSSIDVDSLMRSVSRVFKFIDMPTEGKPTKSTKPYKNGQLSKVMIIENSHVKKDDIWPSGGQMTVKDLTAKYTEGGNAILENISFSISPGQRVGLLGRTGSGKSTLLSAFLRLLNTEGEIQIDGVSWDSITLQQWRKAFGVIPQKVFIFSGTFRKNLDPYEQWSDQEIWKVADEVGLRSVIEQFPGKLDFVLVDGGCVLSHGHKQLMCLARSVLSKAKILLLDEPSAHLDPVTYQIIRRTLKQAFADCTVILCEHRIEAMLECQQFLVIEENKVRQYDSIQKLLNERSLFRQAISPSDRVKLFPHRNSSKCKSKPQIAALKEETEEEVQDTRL

`CCOC(=O)C1CCN(c2nc(C(C)N3CCN(S(=O)(=O)c4ccc(OC)cc4)CC3)nc3ccccc23)CC1` (stereo not drawn) [compound 322]: the EC50 (commonly the midpoint of the concentration-response curve) was under 10 µM and the Emax (commonly the maximal effect, on the per cent scale that the assay sets) was over 100%.
Regarding `COc1ccc(S(=O)(=O)N2CCN(C(C)c3nc(N4CCC5(CC4)OCCO5)c4ccccc4n3)CC2)cc1` (stereo not drawn) [compound 323], the EC50 was 10 to 25 µM and the Emax was in the range of 25 to 100%.
In the same order, the values of `COc1ccc(S(=O)(=O)N2CCN(C(C)c3nc(N4CCC[C@@H]4C(=O)O)c4ccccc4n3)CC2)cc1` (stereo partly drawn) [compound 324] are 25 to 60 µM and under 25%.
With `COc1ccc(S(=O)(=O)N2CCN(C(C)c3nc(N4CCCC4C)c4ccccc4n3)CC2)cc1` (stereo not drawn) [compound 325], the EC50 was under 10 µM and the Emax was over 100%.
As for `COc1ccc(S(=O)(=O)N2CCN(C(C)c3nc(N4CCCCC4C)c4ccccc4n3)CC2)cc1` (stereo not drawn) [compound 326], the EC50 was under 10 µM and the Emax was in the range of 25 to 100%.
Take `COc1ccc(S(=O)(=O)N2CCN(C(C)c3nc(N4CCC5CCCCC5C4)c4ccccc4n3)CC2)cc1` (stereo not drawn) [compound 327]: the EC50 is under 10 µM and the Emax is over 100%.
Regarding `COc1ccc(S(=O)(=O)N2CCN(C(C)c3nc(N4CCC5(CC4)OCCCO5)c4ccccc4n3)CC2)cc1` (stereo not drawn) [compound 328], the EC50 was in the range of 10 to 25 µM and the Emax is over 100%.
The like results for `CCc1ccc(S(=O)(=O)N2CCN(C(C)c3nc4ccccc4c(=O)n3C)CC2)cc1` (stereo not drawn) [compound 329] were, in that order, under 10 µM and 25 to 100%.
With `CC(c1nc2ccccc2c(=O)n1C)N1CCN(S(=O)(=O)c2ccc(CC#N)cc2)CC1` (stereo not drawn) [compound 330], the EC50 lay in the range of 25 to 60 µM and the Emax was in the range of 25 to 100%.
Take `COc1ccc(S(=O)(=O)N2CCN(C(C)c3nc4ccccc4c(=O)n3CC(C)C)CC2)cc1` (stereo not drawn) [compound 331]: the EC50 is under 10 µM and the Emax was over 100%.
For `COc1ccc(S(=O)(=O)N2CCN(C(C)c3nc4ccccc4c(=O)n3CC(C)(C)C)CC2)cc1` (stereo not drawn) [compound 332], the EC50 lay in the range of 25 to 60 µM and the Emax lay in the range of 25 to 100%.
`COc1ccc(S(=O)(=O)N2CCN(C(C)c3nc(N4CCCC4)c4ccccc4n3)CC2)cc1` (stereo not drawn) [compound 333]: the EC50 was in the range of 10 to 25 µM and the Emax was in the range of 25 to 100%.
In the same order, the values of `CCC(c1nc2ccccc2c(=O)[nH]1)N1CCN(S(=O)(=O)c2ccc(OC)cc2)CC1` (stereo not drawn) [compound 334] are 25 to 60 µM and 25 to 100%.
Take `CCCC(c1nc2ccccc2c(=O)[nH]1)N1CCN(S(=O)(=O)c2ccc(OC)cc2)CC1` (stereo not drawn) [compound 335]: the EC50 was in the range of 10 to 25 µM and the Emax was 25 to 100%.
For `CCC(c1nc(N2CCCCC2)c2ccccc2n1)N1CCN(S(=O)(=O)c2ccc(OC)cc2)CC1` (stereo not drawn) [compound 336], the EC50 was under 10 µM and the Emax was over 100%.
With `CCC(c1nc2ccccc2c(=O)n1C)N1CCN(S(=O)(=O)c2ccc(OC)cc2)CC1` (stereo not drawn) [compound 337], the EC50 lay in the range of 10 to 25 µM and the Emax was over 100%.
The like results for `CCC(c1nc2ccccc2c(=O)n1CC)N1CCN(S(=O)(=O)c2ccc(OC)cc2)CC1` (stereo not drawn) [compound 338] were, in that order, under 10 µM and over 100%.
The like results for `CCCC(c1nc(N2CCCCC2)c2ccccc2n1)N1CCN(S(=O)(=O)c2ccc(OC)cc2)CC1` (stereo not drawn) [compound 339] were, in that order, under 10 µM and over 100%.
For `CCCC(c1nc2ccccc2c(=O)n1C)N1CCN(S(=O)(=O)c2ccc(OC)cc2)CC1` (stereo not drawn) [compound 340], the EC50 was under 10 µM and the Emax was over 100%.
On to `CCCC(c1nc2ccccc2c(=O)n1CC)N1CCN(S(=O)(=O)c2ccc(OC)cc2)CC1` (stereo not drawn) [compound 341], for which the EC50 is under 10 µM and the Emax was over 100%.
As to `CCCn1c(C(CC)N2CCN(S(=O)(=O)c3ccc(OC)cc3)CC2)nc2ccccc2c1=O` (stereo not drawn) [compound 342], the concentration for a half-maximal effect (EC50) is under 10 µM and the Emax lay in the range of 25 to 100%.
As to `COc1ccc(S(=O)(=O)N2CCN(C(C)c3nc(OC4CCC(O)CC4)c4ccccc4n3)CC2)cc1` (stereo not drawn) [compound 343], the EC50 is 25 to 60 µM and the Emax is 25 to 100%.
As for `COc1ccc(S(=O)(=O)N2CCN(C(C)c3nc(N4CCCC(CO)C4)c4ccccc4n3)CC2)cc1` (stereo not drawn) [compound 344], the EC50 lay within 10 to 25 µM and the Emax was 25 to 100%.
For `COc1ccc(S(=O)(=O)N2CCN(C(C)c3nc(N4CCN(C)CC4)c4ccccc4n3)CC2)cc1` (stereo not drawn) [compound 345], the EC50 was in the range of 25 to 60 µM and the Emax was 25 to 100%.
As to `COc1ccc(S(=O)(=O)N2CCN(C(C)c3nc(N4CCC(O)CC4)c4ccccc4n3)CC2)cc1` (stereo not drawn) [compound 346], the EC50 was 25 to 60 µM and the Emax was in the range of 25 to 100%.
On to `COc1ccc(S(=O)(=O)N2CCN(C(C)c3nc(N4CCC(CO)CC4)c4ccccc4n3)CC2)cc1` (stereo not drawn) [compound 347], for which the EC50 is 25 to 60 µM and the Emax was in the range of 25 to 100%.
As to `COc1ccc(S(=O)(=O)N2CCN(C(C)c3nc(OC4CCC(C)C(C)C4)c4ccccc4n3)CC2)cc1` (stereo not drawn) [compound 348], the EC50 is under 10 µM and the Emax is over 100%.
Turning to `CCOC(=O)c1cnc(C(C)N2CCN(S(=O)(=O)c3ccc(OC)cc3)CC2)[nH]c1=O` (stereo not drawn) [compound 349], the EC50 was 25 to 60 µM and the Emax is 25 to 100%.
Turning to `CSc1ccc(S(=O)(=O)N2CCN(C(C)c3nc4ccccc4c(=O)n3C)CC2)cc1` (stereo not drawn) [compound 350], the EC50 was in the range of 25 to 60 µM and the Emax was under 25%.
Turning to `CCSc1ccc(S(=O)(=O)N2CCN(C(C)c3nc4ccccc4c(=O)n3C)CC2)cc1` (stereo not drawn) [compound 351], the concentration for a half-maximal effect (EC50) was in the range of 25 to 60 µM and the Emax was under 25%.
As to `CC(c1nc2ccccc2c(=O)n1C)N1CCN(S(=O)(=O)c2ccc(SC(F)(F)F)cc2)CC1` (stereo not drawn) [compound 352], the EC50 was under 10 µM and the Emax was 25 to 100%.
The like results for `CCOC(=O)c1cnc(C(C)N2CCN(S(=O)(=O)c3ccc(OC)cc3)CC2)nc1N1CCCCC1` (stereo not drawn) [compound 353] were, in that order, under 10 µM and 25 to 100%.
With `C#Cc1ccc(S(=O)(=O)N2CCN(C(C)c3nc4ccccc4c(=O)n3C)CC2)cc1` (stereo not drawn) [compound 354], the EC50 lay within 10 to 25 µM and the Emax fell in the range of 25 to 100%.
In the case of `COc1ccc(S(=O)(=O)N2CCN(C(C)c3ncc(C(=O)O)c(N4CCCCC4)n3)CC2)cc1` (stereo not drawn) [compound 355], the EC50 was in the range of 25 to 60 µM and the Emax is under 25%.
In the same order, the values of `COc1ccc(S(=O)(=O)N2CCN(C(C)c3ncc(C(N)=O)c(N4CCCCC4)n3)CC2)cc1` (stereo not drawn) [compound 356] are 25 to 60 µM and 25 to 100%.
`CNC(=O)c1cnc(C(C)N2CCN(S(=O)(=O)c3ccc(OC)cc3)CC2)nc1N1CCCCC1` (stereo not drawn) [compound 357]: the EC50 was 25 to 60 µM and the Emax fell in the range of 25 to 100%.
On to `COc1ccc(S(=O)(=O)N2CCN(C(C)c3ncc(C(=O)N(C)C)c(N4CCCCC4)n3)CC2)cc1` (stereo not drawn) [compound 358], for which the EC50 is 25 to 60 µM and the Emax is 25 to 100%.
Regarding `COc1ccc(S(=O)(=O)N2CCN(C(C)c3ncc(CO)c(N4CCCCC4)n3)CC2)cc1` (stereo not drawn) [compound 359], the EC50 was 25 to 60 µM and the Emax was 25 to 100%.
In the same order, the values of `COc1ccc(S(=O)(=O)N2CCN(C(C)c3nccc(N4CCCCC4)n3)CC2)cc1` (stereo not drawn) [compound 360] are 25 to 60 µM and 25 to 100%.

Source of the values: patent US8642609B2, “Modulators of ATP-binding cassette transporters” (Vertex Pharmaceuticals Incorporated, priority 2003, dated 2014).
